Assay results reported in ChEMBL document CHEMBL1135098, “Design, synthesis and evaluation of substituted phenylpropanoic acid derivatives as peroxisome proliferator-activated receptor (PPAR) activators: novel human PPARalpha-selective activators” (Bioorg Med Chem Lett, 2002).

How the values were obtained:
[1] = target: T1, Peroxisome proliferator-activated receptor gamma (Homo sapiens, UniProt P37231); experiment: […] of human Peroxisome proliferator activated receptor gamma in CHO-K1 cells;ia means inactive at 10 uM; type: cell-based
T1 sequence (P37231 whole entry): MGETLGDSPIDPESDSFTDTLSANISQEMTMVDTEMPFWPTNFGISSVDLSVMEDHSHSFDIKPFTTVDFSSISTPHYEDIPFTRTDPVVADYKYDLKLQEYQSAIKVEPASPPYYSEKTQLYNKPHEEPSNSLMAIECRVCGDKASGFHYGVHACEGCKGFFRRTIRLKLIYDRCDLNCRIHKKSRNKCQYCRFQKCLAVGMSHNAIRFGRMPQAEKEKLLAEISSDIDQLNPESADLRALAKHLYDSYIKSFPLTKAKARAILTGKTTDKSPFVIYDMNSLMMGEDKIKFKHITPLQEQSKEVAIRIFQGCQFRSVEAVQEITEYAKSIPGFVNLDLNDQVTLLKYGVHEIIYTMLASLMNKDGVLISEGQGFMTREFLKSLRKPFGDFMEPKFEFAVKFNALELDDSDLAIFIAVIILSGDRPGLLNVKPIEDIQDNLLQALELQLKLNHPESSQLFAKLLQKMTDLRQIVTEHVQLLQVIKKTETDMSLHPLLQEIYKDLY

[2] = target: T2, Peroxisome proliferator-activated receptor alpha (Homo sapiens, UniProt Q07869); experiment: Concentration of compound that affords half-maximum transactivation of human Peroxisome proliferator activated receptor alpha in CHO-K1 cells was determined in vitro;ia means inactive at 10 uM; type: cell-based
T2 sequence (Q07869 whole entry): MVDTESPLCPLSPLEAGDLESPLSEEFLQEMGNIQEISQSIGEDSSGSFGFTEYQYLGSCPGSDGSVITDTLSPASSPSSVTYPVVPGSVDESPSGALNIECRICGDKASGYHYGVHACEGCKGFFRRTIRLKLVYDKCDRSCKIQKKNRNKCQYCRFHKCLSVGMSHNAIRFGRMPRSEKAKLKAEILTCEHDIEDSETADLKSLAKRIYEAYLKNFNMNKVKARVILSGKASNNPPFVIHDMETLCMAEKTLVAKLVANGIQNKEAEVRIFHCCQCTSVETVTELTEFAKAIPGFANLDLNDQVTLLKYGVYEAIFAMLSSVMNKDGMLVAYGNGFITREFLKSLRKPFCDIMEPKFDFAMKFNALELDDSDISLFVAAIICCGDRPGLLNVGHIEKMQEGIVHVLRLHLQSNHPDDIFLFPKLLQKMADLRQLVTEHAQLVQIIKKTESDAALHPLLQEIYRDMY

[3] = target: T2, Peroxisome proliferator-activated receptor alpha; experiment: Transactivation of human Peroxisome proliferator activated receptor alpha expressed in CHO-K1 cells; type: cell-based
[4] = target: T1, Peroxisome proliferator-activated receptor gamma
Description: Concentration of compound that affords half-maximum transactivation of human Peroxisome proliferator activated receptor gamma in CHO-K1 cells was determined in vitro

| Structure (SMILES) | EC50 [1] | EC50 [2] | further results |
| --- | --- | --- | --- |
| COc1ccc(CCC(=O)O)cc1C(=O)NCc1ccc(C(F)(F)F)cc1 | Not Active |  |  |
| COc1ccc(CC(Oc2ccccc2)C(=O)O)cc1C(=O)NCc1ccc(C(F)(F)F)cc1 (stereo not drawn) | Not Active | Not Active |  |
| COc1ccc(CC(OC)C(=O)O)cc1C(=O)NCc1ccc(C(F)(F)F)cc1 (stereo not drawn) | Not Active |  |  |
| COc1ccc(C(=O)O)cc1C(=O)NCc1ccc(C(F)(F)F)cc1 | Not Active | Not Active |  |
| COc1ccc(CC(C(=O)O)C(C)C)cc1C(=O)NCc1ccc(C(F)(F)F)cc1 (stereo not drawn) | Not Active |  |  |
| COc1ccc(CC(C)C(=O)O)cc1C(=O)NCc1ccc(C(F)(F)F)cc1 (stereo not drawn) | Not Active |  |  |
| COc1ccc(CC(=O)O)cc1C(=O)NCc1ccc(C(F)(F)F)cc1 | Not Active | Not Active |  |
| COc1ccc(CCCC(=O)O)cc1C(=O)NCc1ccc(C(F)(F)F)cc1 |  |  | EC50 [3]: 2.2 µM; EC50 [4]: 3 µM |
| COc1ccc(CC(C)(C)C(=O)O)cc1C(=O)NCc1ccc(C(F)(F)F)cc1 | Not Active |  |  |
| CCCC(Cc1ccc(OC)c(C(=O)NCc2ccc(C(F)(F)F)cc2)c1)C(=O)O (stereo not drawn) | Not Active |  |  |
| CCC(CC)(Cc1ccc(OC)c(C(=O)NCc2ccc(C(F)(F)F)cc2)c1)C(=O)O | Not Active |  |  |
| COc1ccc(CC(C(=O)O)c2ccccc2)cc1C(=O)NCc1ccc(C(F)(F)F)cc1 (stereo not drawn) | Not Active | Not Active |  |
| CC(C)(Oc1ccc(CCNC(=O)c2ccc(Cl)cc2)cc1)C(=O)O [BEZAFIBRATE] |  |  | EC50 [4]: > 137 µM |
